What was measured:
Type in all cases: in vivo
[1] = system: bermudagrass (Cynodon dactylon); assay: Test B pre-/postemergence plant response; details: for Bermudagrass plant response rating: 8 g ai/ha
Outline: (§1)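 Preemergence and postemergence (plants 2-18 cm, 1- to 4-leaf stage) applications used test chemicals in a non-phytotoxic solvent with surfactant. Plants were held in a greenhouse 13 to 15 days, then rated visually against controls on a 0-100 scale (0 no effect, 100 complete control).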

[2] = system: velvetleaf (Abutilon theophrasti); assay: Test B pre-/postemergence plant response; details: for Velvetleaf plant response rating: 8 g ai/ha
Outline: as §1

[3] = system: eastern black (E.B.) nightshade (Solanum ptycanthum); assay: Test B pre-/postemergence plant response; details: Preemergence
Outline: as §1

[4] = system: corn (Zea mays); assay: Test B pre-/postemergence plant response; details: for Corn plant response rating: 8 g ai/ha
Outline: as §1

[5] = system: morningglory (Ipomoea coccinea); assay: Test B pre-/postemergence plant response; details: for Morningglory plant response rating: 8 g ai/ha
Outline: as §1

[6] = system: giant foxtail (Setaria faberii); assay: Test B pre-/postemergence plant response; details: for Foxtail, Giant plant response rating: 8 g ai/ha
Outline: as §1

[7] = system: lambsquarters (Chenopodium album); assay: Test B pre-/postemergence plant response
Outline: as §1

[8] = system: wild oat (Avena fatua); assay: Test B pre-/postemergence plant response; details: for Oat, Wild plant response rating: 8 g ai/ha
Outline: as §1

[9] = system: yellow nutsedge (Cyperus esculentus); assay: Test B pre-/postemergence plant response; details: for Nutsedge, Yellow plant response rating: 8 g ai/ha
Outline: as §1

[10] = system: blackgrass (Alopecurus myosuroides); assay: Test B pre-/postemergence plant response; details: for Blackgrass plant response rating: 8 g ai/ha
Outline: as §1

[11] = system: chickweed (Stellaria media); assay: Test B postemergence plant response; details: for Plant response rating, Chickweed: Postemergence, scale 0 to 100
Outline: (§2)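 Compounds applied after emergence to 2–18 cm plants; response read visually 13–15 days later on 0 (none) to 100 (complete control); a dash marks no result.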

[12] = system: winter barley (Hordeum vulgare); assay: Test B postemergence plant response; details: for Plant response rating, Barley: Postemergence
Outline: as §2

[13] = system: canarygrass (Phalaris minor); assay: Test B postemergence plant response; details: for Plant response rating, Canarygrass: Postemergence
Outline: as §2

[14] = system: windgrass (Apera spica-venti); assay: Test B postemergence plant response; details: for Plant response rating, Windgrass: Postemergence
Outline: as §2

[15] = system: barnyardgrass (Echinochloa crus-galli); assay: Test B flooded paddy test plant response
Outline: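 Compounds were added directly to paddy water over 2-leaf-stage plants in pots flooded 3 cm above soil, water depth maintained. Visual injury scored against controls after 13 to 15 days in greenhouse, 0 (none) to 100 (complete control); dash indicates no result.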

[16] = Postemergence, 16 g ai/ha, scale 0 to 100
[17] = Postemergence, 31 g ai/ha, scale 0 to 100, 0 no effect, 100 complete control
[18] = Postemergence, 62 g ai/ha, scale 0 to 100
[19] = Preemergence, 16 g ai/ha, scale 0 to 100 (0 no effect, 100 complete control)
[20] = Preemergence, 31 g ai/ha, 0 to 100 scale, 0 no effect, 100 complete control
[21] = Preemergence, 62 g ai/ha, scale 0 to 100
[22] = 8 g ai/ha, postemergence, 0-100 scale
[23] = 31 g ai/ha, scale 0 to 100, 0 no effect, 100 complete control

CCc1cc(-c2ccc(C(F)(F)F)cc2)nn1-c1c(OS(C)(=O)=O)cnn(C)c1=O [Compound 19]
Bermudagrass plant response rating ([1]; postemergence, 0-100 scale): 80 | Plant response rating, Bermudagrass [1, 16]: 100 | Plant response rating, Bermudagrass [1, 17]: 100 | Plant response rating, Bermudagrass [1, 18]: 100 | Bermudagrass plant response rating ([1]; Preemergence, scale 0 to 100 (0 no effect, 100 complete control)): 0 | Plant response rating, Bermudagrass [1, 19]: 90 | Plant response rating, Bermudagrass [1, 20]: 98 | Plant response rating, Bermudagrass [1, 21]: 100 | Velvetleaf plant response rating ([2]; postemergence, 0-100 scale): 0 | Plant response rating, Velvetleaf [2, 16]: 0 | Plant response rating, Velvetleaf [2, 17]: 0 | Plant response rating, Velvetleaf [2, 18]: 0 | Plant response rating, Velvetleaf [2, 19]: 0 | Plant response rating, Velvetleaf [2, 20]: 0 | Plant response rating, Velvetleaf [2, 21]: 0 | Velvetleaf plant response rating ([2]; Preemergence, scale 0 to 100): 0 | Plant response rating, Nightshade, E. B. ([3]; 16 g ai/ha, scale 0 to 100 (0 no effect, 100 complete control)): 0 | Plant response rating, Nightshade, E. B. ([3]; 62 g ai/ha, scale 0 to 100): 0 | Nightshade, E. B. plant response rating ([3]; 8 g ai/ha, scale 0 to 100): 0 | Corn plant response rating ([4]; postemergence, 0-100 scale): 0 | Plant response rating, Corn [4, 16]: 0 | Plant response rating, Corn [4, 17]: 0 | Plant response rating, Corn [4, 18]: 95 | Plant response rating, Corn [4, 19]: 85 | Plant response rating, Corn [4, 20]: 95 | Plant response rating, Corn [4, 21]: 98 | Corn plant response rating ([4]; Preemergence, scale 0 to 100): 70 | Morningglory plant response rating ([5]; postemergence, 0-100 scale): 0 | Plant response rating, Morningglory [5, 16]: 0 | Plant response rating, Morningglory [5, 17]: 0 | Plant response rating, Morningglory [5, 18]: 0 | Plant response rating, Morningglory [5, 19]: 0 | Plant response rating, Morningglory [5, 20]: 0 | Plant response rating, Morningglory [5, 21]: 0 | Morningglory plant response rating ([5]; Preemergence, scale 0 to 100): 0 | Foxtail, Giant plant response rating ([6]; postemergence, 0-100 scale): 95 | Plant response rating, Foxtail, Giant [6, 16]: 100 | Plant response rating, Foxtail, Giant [6, 17]: 100 | Plant response rating, Foxtail, Giant [6, 18]: 100 | Plant response rating, Foxtail, Giant [6, 19]: 100 | Plant response rating, Foxtail, Giant [6, 20]: 100 | Plant response rating, Foxtail, Giant [6, 21]: 100 | Foxtail, Giant plant response rating ([6]; Preemergence, scale 0 to 100): 70 | Lambsquarters plant response rating [7, 22]: 0 | Plant response rating, Lambsquarters [7, 16]: 0 | Plant response rating, Lambsquarters [7, 17]: 0 | Plant response rating, Lambsquarters [7, 18]: 0 | Plant response rating, Lambsquarters [7, 19]: 0 | Plant response rating, Lambsquarters [7, 20]: 0 | Plant response rating, Lambsquarters [7, 21]: 40 | Oat, Wild plant response rating ([8]; postemergence, 0-100 scale): 90 | Plant response rating, Oat, Wild [8, 16]: 98 | Plant response rating, Oat, Wild [8, 17]: 100 | Plant response rating, Oat, Wild [8, 18]: 100 | Plant response rating, Oat, Wild [8, 19]: 75 | Plant response rating, Oat, Wild [8, 20]: 95 | Plant response rating, Oat, Wild [8, 21]: 95 | Oat, Wild plant response rating ([8]; Preemergence, scale 0 to 100): 60 | Nutsedge, Yellow plant response rating ([9]; postemergence, 0-100 scale): 0 | Plant response rating, Nutsedge, Yellow [9, 16]: 0 | Plant response rating, Nutsedge, Yellow [9, 17]: 0 | Plant response rating, Nutsedge, Yellow [9, 18]: 30 | Plant response rating, Nutsedge, Yellow [9, 19]: 0 | Plant response rating, Nutsedge, Yellow [9, 20]: 0 | Plant response rating, Nutsedge, Yellow [9, 21]: 0 | Nutsedge, Yellow plant response rating ([9]; Preemergence, scale 0 to 100): 0 | Blackgrass plant response rating ([10]; postemergence, 0-100 scale): 80 | Plant response rating, Blackgrass [10, 16]: 85 | Plant response rating, Blackgrass [10, 17]: 90 | Plant response rating, Blackgrass [10, 18]: 95 | Plant response rating, Blackgrass [10, 19]: 100 | Plant response rating, Blackgrass [10, 20]: 100 | Plant response rating, Blackgrass [10, 21]: 100 | Blackgrass plant response rating ([10]; Preemergence, scale 0 to 100): 95 | Chickweed plant response rating [11, 22]: 0 | Plant response rating, Chickweed ([11]; 16 g ai/ha): 0 | Plant response rating, Chickweed ([11]; 62 g ai/ha): 0 | Barley plant response rating [12, 22]: 0 | Plant response rating, Barley ([12]; 16 g ai/ha, scale 0 to 100, 0 no effect, 100 complete control): 5 | Plant response rating, Barley [12, 23]: 5 | Plant response rating, Barley ([12]; 62 g ai/ha, scale 0 to 100): 90 | Canarygrass plant response rating [13, 22]: 0 | Plant response rating, Canarygrass ([13]; 16 g ai/ha, scale 0 to 100): 20 | Plant response rating, Canarygrass [13, 23]: 20 | Plant response rating, Canarygrass ([13]; 62 g ai/ha, scale 0 to 100): 100 | Windgrass plant response rating [14, 22]: 90 | Plant response rating, Windgrass ([14]; 16 g ai/ha, scale 0 to 100): 95 | Plant response rating, Windgrass [14, 23]: 100 | Plant response rating, Windgrass ([14]; 62 g ai/ha, scale 0 to 100): 100 | Plant response rating, Barnyardgrass ([15]; Flood (flooded paddy test), 62 g ai/ha, scale 0 to 100, 0 no effect, 100 complete control): 30 | Plant response rating, Barnyardgrass ([15]; Flood (flooded paddy test), 125 g ai/ha, scale 0 to 100, 0 no effect, 100 complete control): 60 | Plant response rating, Barnyardgrass ([15]; Flood (flooded paddy test), 250 g ai/ha, scale 0 to 100, 0 no effect, 100 complete control): 75 | Plant response rating, Barnyardgrass ([15]; Flood, 31 g ai/ha, scale 0 to 100): 0
